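Five concentrations, 48 hours, 96-well plates. The concentration for 50% growth inhibition is given as GI50. TGI: total growth inhibition.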 Where a SMILES comes first, the peptide text is derived from it. Bridges are numbered along the chain shown (N, C = ends).
Key:
Assay in all cases: DTP human tumour cell line panel, 48 h
[1] = system: NCI-H23 lung
[2] = system: SF-268 CNS
[3] = system: RXF 393 renal
[4] = system: HOP-92 NSCLC
[5] = system: UACC-62 melanoma
[6] = system: UO-31 renal
[7] = system: MDA-MB-231 breast
[8] = system: DU-145 prostate
[9] = system: 786-0 renal
[10] = system: LOX IMVI melanoma

Compound | TGI [1] | TGI [2] | TGI [3] | TGI [4] | TGI [5] | TGI [6] | TGI [7] | TGI [8] | TGI [9] | TGI [10] | GI50 [8] | GI50 [1] | GI50 [4] | GI50 [6]
COC1CCC(CO)OO1 (stereo not given) | > 100 µM | > 100 µM | > 100 µM | > 100 µM | > 100 µM | > 100 µM | – | – | – | – | – | – | – | –
O=C1OC2(CCCCC2)C(Oc2ccc(Cl)cc2)=C1F | – | > 100 µM | > 100 µM | 82.5 µM | > 100 µM | > 100 µM | > 100 µM | > 100 µM | > 100 µM | > 100 µM | – | – | – | –
CNCC(SC)c1ccc(O)c(O)c1 (stereo not given) | > 100 µM | > 100 µM | > 100 µM | 39.3 µM | > 100 µM | > 100 µM | > 100 µM | 37.4 µM | 39.1 µM | 84.9 µM | – | – | – | –
COc1ccc(C2C3=C(COC3=O)Oc3cc4c(cc32)OCO4)cc1OC (stereo not given) | > 100 µM | > 100 µM | 5.7 µM | > 100 µM | > 100 µM | > 100 µM | > 100 µM | > 67.2 µM | > 100 µM | > 100 µM | – | – | – | –
COC(=O)c1c(CC(=O)OC(C)C)cc2n(c1=O)Cc1c-2nc2ccccc2c1OC | > 100 µM | > 100 µM | 99.6 µM | > 100 µM | > 100 µM | > 100 µM | – | – | > 100 µM | > 100 µM | – | – | – | –
CN1Cc2ccccc2C2(COc3ccccc3C2=O)C1 (stereo not given) | > 100 µM | > 100 µM | > 100 µM | 93.6 µM | > 100 µM | > 100 µM | – | – | – | > 100 µM | – | – | – | –
C[C@H](CCc1nc(C#N)c(N)o1)[C@H]1CC[C@H]2[C@@H]3CCC4C[C@@H](O)CC[C@]4(C)[C@H]3C[C@@H](O)[C@]12C (stereo not given in full) | 32.7 µM | 27.8 µM | 24.7 µM | 28 µM | 25.3 µM | 16.6 µM | 32.7 µM | 28 µM | 24 µM | 23.8 µM | – | – | – | –
N/C(=N\N=C/c1c(O)cc(O)cc1O)NO | > 100 µM | > 100 µM | > 100 µM | > 100 µM | > 100 µM | > 100 µM | – | – | – | > 100 µM | – | – | – | –
CC1(C)Cc2ccccc2C(C)(Cl)C(=O)N1 (stereo not given) | > 10 µM | > 10 µM | > 10 µM | > 10 µM | > 10 µM | > 10 µM | > 10 µM | > 10 µM | > 10 µM | – | – | – | – | –
Cc1cc(NS(=O)(=O)c2ccc(Nc3c4ccccc4nc4c(C(=O)NC(CO)(CO)CO)cccc34)cc2)no1 | > 100 µM | 60.6 µM | – | > 100 µM | 75.1 µM | > 100 µM | > 100 µM | > 100 µM | > 100 µM | 43.1 µM | – | – | – | –
CC(=O)N1CCOC12N=NC(C)(C)O2 (stereo not given) | > 100 µM | > 100 µM | – | > 100 µM | > 100 µM | > 100 µM | > 100 µM | > 100 µM | > 100 µM | > 100 µM | – | – | – | –
COc1ccc(/C=C/C(=O)c2cc(CN(C)C)c(O)c(CN(C)C)c2)cc1 | > 100 µM | > 100 µM | > 100 µM | – | – | 86.9 µM | 69.6 µM | > 100 µM | > 100 µM | 31.9 µM | – | – | – | –
NCCCNCCSP(=O)(O)O | > 750 µM | > 750 µM | > 750 µM | > 750 µM | > 750 µM | > 750 µM | – | – | – | > 750 µM | – | – | – | –
C/C(N=NS(=O)(=O)c1c(C)cc(C)cc1C)=C1\C=CC=CN1O | > 100 µM | > 100 µM | – | > 100 µM | > 100 µM | > 100 µM | – | – | > 100 µM | – | – | – | – | –
CCOC(=O)C1=C(N2CCCC2)C(=O)C(C(=O)OCC)C1 (stereo not given) | > 100 µM | > 100 µM | > 100 µM | > 100 µM | – | > 100 µM | > 100 µM | – | > 100 µM | > 100 µM | – | – | – | –
CSCCC(NC(=O)C(Cc1c[nH]c2ccccc12)NC(=O)CCNC(=O)OC(C)(C)C)C(=O)NC(CC(=O)O)C(=O)NC(Cc1ccccc1)C(N)=O (stereo not given) | – | > 50 µM | > 50 µM | > 50 µM | > 50 µM | – | > 50 µM | > 50 µM | > 50 µM | > 50 µM | – | – | – | –
Cc1cc2ccccc2n2c1nc1ccc(O)cc12 | > 10 µM | > 10 µM | > 10 µM | – | > 10 µM | – | > 10 µM | > 10 µM | > 10 µM | – | – | – | – | –
COC(=O)C1CCC(=O)NCCCCC(NC(=O)C(N)CC(=O)O)C(=O)N1 (stereo not drawn) (H-Asp-Lys-Glu-OMe; lactam 2-3; configuration not given here) | > 100 µM | > 100 µM | > 100 µM | – | > 100 µM | > 100 µM | > 100 µM | > 100 µM | > 100 µM | > 100 µM | – | – | – | –
C=C1c2nc3ccccc3n2C=C(c2ccccc2)N1c1ccc(C)cc1 | > 100 µM | – | > 100 µM | > 100 µM | > 100 µM | > 100 µM | > 100 µM | > 100 µM | > 100 µM | > 100 µM | – | – | – | –
C/C(=N\Nc1nc2cc(F)ccc2s1)c1ccccn1 | 2.23 µM | 1.65 µM | 6.65 µM | 11.5 µM | 1.46 µM | 0.314 µM | > 45.1 µM | > 100 µM | > 39 µM | – | – | – | – | –
COc1ccc(Cn2c(=O)c(OS(=O)(=O)C(F)(F)F)c(C)c3cc4ccccc4cc32)cc1 | > 100 µM | > 100 µM | > 100 µM | – | > 100 µM | > 100 µM | > 100 µM | > 100 µM | > 100 µM | > 100 µM | – | – | – | –
COc1cccc(C2C(C#N)=C(N)Oc3cc(OCCCCCC[P+](c4ccccc4)(c4ccccc4)c4ccccc4)ccc32)c1 (stereo not given) | 2.83 µM | – | – | 0.912 µM | – | 4.69 µM | – | 2.21 µM | – | – | 0.95 µM | 0.624 µM | 0.23 µM | 1.91 µM
O=S1(=O)N=C(SCc2c[nH]c3ccccc23)N(c2ccccc2)c2ccncc21 | > 100 µM | > 100 µM | – | > 100 µM | > 100 µM | 50 µM | > 100 µM | > 100 µM | 65.5 µM | > 100 µM | – | – | – | –
CC1=NN(c2ccccc2)C(=O)/C1=C\c1c(C)[nH]n(-c2ccccc2)c1=O | > 100 µM | > 100 µM | > 100 µM | 90.5 µM | > 100 µM | > 100 µM | > 100 µM | > 100 µM | > 100 µM | – | – | – | – | –

— PubChem BioAssay (NCI)
